According to PMC8301926 (Biomolecules, 2021):

Columns and labels:
[1] = target: T1, human M5 muscarinic acetylcholine receptor (hM5R) (Homo sapiens, UniProt P08912); assay: M5 (h) functional GPCR assay, antagonist effect, intracellular Ca2+; format: cell-based; details: RBL
T1 construct: host or cells: RBL (rat basophilic leukemic) cells
T1 sequence (P08912 1-532): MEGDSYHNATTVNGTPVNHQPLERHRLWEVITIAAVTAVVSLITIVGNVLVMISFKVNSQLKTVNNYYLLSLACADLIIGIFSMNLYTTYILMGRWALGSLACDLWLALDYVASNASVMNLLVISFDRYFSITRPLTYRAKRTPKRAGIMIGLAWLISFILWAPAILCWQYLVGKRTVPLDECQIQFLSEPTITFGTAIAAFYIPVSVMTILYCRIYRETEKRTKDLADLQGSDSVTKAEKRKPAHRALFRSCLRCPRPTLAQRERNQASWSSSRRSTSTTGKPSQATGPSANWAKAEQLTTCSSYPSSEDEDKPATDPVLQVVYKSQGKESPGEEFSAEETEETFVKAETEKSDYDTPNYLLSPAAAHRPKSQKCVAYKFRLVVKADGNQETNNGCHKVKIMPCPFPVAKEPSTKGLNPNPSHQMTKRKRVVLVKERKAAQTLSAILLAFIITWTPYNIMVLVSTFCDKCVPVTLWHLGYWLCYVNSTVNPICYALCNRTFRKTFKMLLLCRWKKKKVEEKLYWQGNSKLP

[2] = target: T2, recombinant human monoamine oxidase B (hMAO-B) (Homo sapiens, UniProt P27338); assay: hMAO-B inhibition, MAO-Glo chemiluminescent assay; format: biochemical; details: mean ± SD of triplicate experiments
T2 sequence (P27338 1-520): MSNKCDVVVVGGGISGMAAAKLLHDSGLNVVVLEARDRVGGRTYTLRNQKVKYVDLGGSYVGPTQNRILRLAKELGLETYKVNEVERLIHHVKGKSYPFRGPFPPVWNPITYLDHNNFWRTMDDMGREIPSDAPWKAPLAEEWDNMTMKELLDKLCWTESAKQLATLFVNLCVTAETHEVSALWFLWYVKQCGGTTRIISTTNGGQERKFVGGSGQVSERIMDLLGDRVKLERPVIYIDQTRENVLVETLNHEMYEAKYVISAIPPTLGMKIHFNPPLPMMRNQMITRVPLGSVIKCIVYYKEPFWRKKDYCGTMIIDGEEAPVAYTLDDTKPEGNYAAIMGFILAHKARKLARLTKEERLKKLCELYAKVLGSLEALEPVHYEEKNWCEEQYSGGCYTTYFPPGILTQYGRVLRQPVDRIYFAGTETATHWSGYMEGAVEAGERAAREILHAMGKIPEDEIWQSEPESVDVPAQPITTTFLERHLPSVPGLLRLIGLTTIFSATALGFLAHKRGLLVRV

[3] = target: T3, human M3 muscarinic acetylcholine receptor (hM3R) (Homo sapiens, UniProt P20309); assay: M3 (h) functional GPCR assay, agonist effect, intracellular Ca2+; format: cell-based; details: 100 µM; % of control response to 1-µM acetylcholine; CHO cells
T3 construct: host or cells: CHO cells

[4] = system: recombinant human MAO-A (hMAO-A); set-up: method as in earlier work; details: ref 27 (Dittman et al., 2004); read-out: IC50, recombinant human MAO-A (literature); cited from earlier work
[5] = target: T2, recombinant human monoamine oxidase B (hMAO-B); assay: hMAO-B enzyme kinetics (Lineweaver-Burk, Dixon, secondary plots); format: biochemical; details: for Ki: hMAO-B, from secondary plots; for Inhibition Type, hMAO-B: Lineweaver-Burk and Dixon plots

T3 sequence (P20309 whole entry): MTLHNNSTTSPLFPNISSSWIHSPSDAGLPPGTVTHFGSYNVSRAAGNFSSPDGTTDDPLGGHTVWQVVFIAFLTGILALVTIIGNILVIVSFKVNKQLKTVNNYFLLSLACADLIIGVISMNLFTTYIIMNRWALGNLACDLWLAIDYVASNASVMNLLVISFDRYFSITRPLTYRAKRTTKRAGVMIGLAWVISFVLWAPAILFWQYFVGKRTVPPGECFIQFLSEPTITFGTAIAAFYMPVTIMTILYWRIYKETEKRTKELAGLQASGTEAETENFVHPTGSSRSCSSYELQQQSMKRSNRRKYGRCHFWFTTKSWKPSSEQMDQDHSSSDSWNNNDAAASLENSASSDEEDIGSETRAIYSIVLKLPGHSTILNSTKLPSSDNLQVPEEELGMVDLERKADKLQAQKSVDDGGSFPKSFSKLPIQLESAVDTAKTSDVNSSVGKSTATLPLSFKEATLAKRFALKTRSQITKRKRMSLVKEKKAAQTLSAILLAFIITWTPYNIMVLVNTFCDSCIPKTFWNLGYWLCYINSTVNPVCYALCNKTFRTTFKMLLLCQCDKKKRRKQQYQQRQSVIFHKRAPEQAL

## Cc1coc2c1C(=O)C(=O)c1c-2ccc2c(C)cccc12 [Tanshinone I]
[1]
  inhibition at 100 µM: -0.5 ± 0.42%
[2]
  IC50: 24.9 ± 3.82 µM
[3]
  % Stimulation, M3: −2.3 ± 0.21%
[4]
  IC50: 80 µM
[5]; Kic
  Ki: 25.6 ± 1.1 µM
[5]; Kiu
  Ki: 17.4 ± 0.78 µM
[5]
  Inhibition Type, hMAO-B: Mixed
[5]; listed as 1
  Inhibition Type, hMAO-B: mixed mode of inhibition
